Source: publication PMC3463759 (Clinical cancer research : an official journal of the …, 2012)
Read-outs that look alike come from different tables or passages of the source. Blank lines part the entries; values can stand above or below the compound they belong to.

Legend:
[1] = for reduction of Cmax: paclitaxel with dasatinib (Cycle 2 Day 1) vs paclitaxel alone (Cycle 1 Day 1)
clinical = settings: human, plasma, intravenous
[2] = paclitaxel alone, Cycle 1 Day 1, N=20
[3] = paclitaxel alone, Cycle 1 Day 1, N=20, dose-normalized to 175 mg/m^2
[4] = paclitaxel and dasatinib, Cycle 2 Day 1, N=18
[5] = paclitaxel and dasatinib, Cycle 2 Day 1, N=18, dose-normalized to 175 mg/m^2
[6] = paclitaxel with dasatinib vs paclitaxel alone

inter-individual variability (%CV) for exposure ([1]; in vivo): 40–70%
T-HALF, Mean (SD) [1, 2]: 1.26 h
AUC(0-T), Geo Mean (%CV) [1, 3]: 732 (53) ng•h/mL
AUC(INF), Geo Mean (%CV) [1, 3]: 771 (53) ng•h/mL
Cmax, Geo Mean (%CV) [1, 3]: 349 (44) ng/mL
T-HALF, Mean (SD) ([1]; paclitaxel alone, Cycle 1 Day 1, N=20, listed as 6-OH Paclitaxel): 1.26 (0.75) h
M/P, metabolite to parent ratio based on dose normalized AUC(INF), Mean (SD) ([1]; paclitaxel alone, N=20): 0.06 (0.04)
T-HALF, Mean (SD) [1, 4]: 0.94 h
AUC(0-T), Geo Mean (%CV) [1, 5]: 562 (68) ng•h/mL
AUC(INF), Geo Mean (%CV) [1, 5]: 615 (68) ng•h/mL
Cmax, Geo Mean (%CV) [1, 5]: 260 (58) ng/mL
T-HALF, Mean (SD) ([1]; paclitaxel and dasatinib, Cycle 2 Day 1, N=18, listed as 6-OH Paclitaxel): 0.94 (0.47) h
M/P, metabolite to parent ratio based on dose normalized AUC(INF), Mean (SD) ([1]; paclitaxel and dasatinib, N=18): 0.05 (0.02)
reduction of Cmax [1]: 25%
reduction of geometric mean AUC(0-T) [1, 6]: 23%
reduction of geometric mean AUC(INF) [1, 6]: 20%
reduction of mean T-HALF [1, 6]: 25%
SMILES: CC(=O)O[C@H]1C(=O)[C@@]2(C)[C@H]([C@H](OC(=O)c3ccccc3)[C@]3(O)C[C@H](OC(=O)[C@H](O)[C@@H](NC(=O)c4ccccc4)c4ccccc4)C(C)=C1C3(C)C)[C@]1(OC(C)=O)CO[C@@H]1[C@@H](O)[C@@H]2O [6-OH paclitaxel]

differences in mean T-HALF, MRT(INF), CLt, and Vss ([1]; paclitaxel alone vs paclitaxel in combination with dasatinib): less than 20%
CLt, Mean (SD) [1, 2]: 20.9 (6.3) L/h
T-HALF, Mean (SD) [1, 2]: 11.7 (1.6) h
CLt, Mean (SD) [1, 4]: 24.3 (6.0) L/h
T-HALF, Mean (SD) [1, 4]: 11.7 (3.8) h
reduction of Cmax [1]: 19%
reduction of geometric mean AUC(0-T) [1, 6]: 15%
reduction of geometric mean AUC(INF) [1, 6]: 14%
MRT inf (clinical): 6.9 h
Vd (clinical): 163 L
AUC(0-inf) (clinical; 175 mg/m^2): 16100 ng·h/mL
AUC(0-t) (clinical; 175 mg/m^2): 15700 ng·h/mL
Cmax (clinical; 175 mg/m^2): 4820 ng/mL
MRT inf (clinical; 175 mg/m^2): 6.7 h
SMILES: CC(=O)O[C@H]1C(=O)[C@@]2(C)[C@H]([C@H](OC(=O)c3ccccc3)[C@]3(O)C[C@H](OC(=O)[C@H](O)[C@@H](NC(=O)c4ccccc4)c4ccccc4)C(C)=C1C3(C)C)[C@]1(OC(C)=O)CO[C@@H]1C[C@@H]2O [paclitaxel]
